The record followed here is US20260078130A1, “NAMPT MODULATORS, PREPARATIONS, AND USES THEREOF” (SIRONAX LTD., priority 2022, published 2026).

This assay has as its target T1, human enzyme NAMPT (full length) (Homo sapiens, UniProt P43490).
T1 construct: human enzyme NAMPT (full length)
Put plainly: NMN fluorescence biochemical assay (stimulation of NMN synthesis by NAMPT). The following applies: for EC50: concentration giving half-maximal activation, read-out: Enzymatic EC50; for Enzymatic Emax: fold change of maximal activation compared to DMSO. Here is the method:
Certain compounds described herein were assayed for their ability to stimulate the synthesis of nicotinamide mononucleotide (NMN) by human enzyme NAMPT (full length). The enzymatic assay was performed in a 384-well plate using a TMD buffer (50 mM Tris-HCl, 10 mM MgCl2, 2 mM DTT, pH 7.5). Purified NAMPT (100 nM) was pre-incubated with 0.2 μL. DMSO solution of the test compound (with a series of concentrations) in 10 μL TMD buffer for 15 min at 37° C. The reaction was initiated by adding 10 μL solution of NAM (50 μM), PRPP (100 μM), and ATP (4 mM) in TMD buffer. After 1 h of incubation at 37 T, an aliquot (20 μL) of the NMN-containing sample was sequentially mixed with 5 μL of 20% acetophenone (in DMSO) and 5 μL of 2M KOH. The mixture was placed on ice for 10 min. Next, 22.5 μL of 100% formic acid was added to each sample, vortexed, and then incubated at 37° C. for 20 min. Fluorescence (Ex/Em=382/445 nm) was measured using an Envision plate reader. The potency measurements for the test compounds were quantified and represented as EC50 (concentration of a compound that gives half-maximal activation) and Emax (fold change of a compound's maximal activation compared to DMSO).

The mark [1] stands for this setting: NMN fluorescence assay, purified human NAMPT 100 nM.
The mark [2] stands for this setting: NMN synthesis by purified human NAMPT (100 nM).

The structures appear in SMILES notation. Read-outs that look alike come from different tables or passages of the source.

T1 sequence (P43490 whole entry): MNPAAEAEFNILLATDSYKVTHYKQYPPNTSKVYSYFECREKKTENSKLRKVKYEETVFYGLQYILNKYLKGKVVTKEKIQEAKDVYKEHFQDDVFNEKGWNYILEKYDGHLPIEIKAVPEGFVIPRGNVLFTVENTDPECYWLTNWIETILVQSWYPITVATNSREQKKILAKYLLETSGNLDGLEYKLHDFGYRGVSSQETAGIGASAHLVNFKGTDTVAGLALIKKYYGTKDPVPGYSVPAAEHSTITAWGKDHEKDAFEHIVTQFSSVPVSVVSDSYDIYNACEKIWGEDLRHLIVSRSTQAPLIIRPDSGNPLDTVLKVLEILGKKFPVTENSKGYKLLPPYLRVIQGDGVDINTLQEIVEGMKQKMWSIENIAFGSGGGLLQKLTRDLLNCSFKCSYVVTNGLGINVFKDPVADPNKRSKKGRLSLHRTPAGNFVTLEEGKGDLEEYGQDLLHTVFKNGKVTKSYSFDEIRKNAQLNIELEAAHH

As usually defined, the EC50 is the concentration that produces a half-maximal response. Consider `COc1c(F)cc(CN2C(=O)c3ccccc3C2Cc2c(Cl)cnn2C)cc1F` (stereo not drawn) [Compound 560, 3-((4-chloro-1-methyl-1H-pyrazol-5-yl)methyl)-2-(3,5-difluoro-4-methoxybenzyl)isoindolin-1-one], for which the “Enzymatic Emax” value is on record as “B (3≥B>2)”. Also, the EC50 under setting [1] is at least 5 µM.

As to `Cc1nc2cc(CN3C(=O)c4ccccc4C3Cc3ncccc3Br)ccc2[nH]1` (stereo not drawn) [Compound 358, 3-((3-bromopyridin-2-yl)methyl)-2-((2-methyl-1H-benzo[d]imidazol-5-yl)methyl)isoindolin-1-one], the “Enzymatic Emax” value is recorded as “A (A>3)”. Moreover, under setting [1], the concentration for a half-maximal effect (EC50) is 0.5 to 5 µM.

As to `O=C1c2ccccc2C(Cc2cc(F)ccn2)N1Cc1ccc2[nH]c(=O)oc2c1` (stereo not drawn) [Compound 233, 6-((1-((4-fluoropyridin-2-yl)methyl)-3-oxoisoindolin-2-yl)methyl)benzo[d]oxazol-2(3H)-one], the “Enzymatic Emax” value was “B (3≥B>2)”. Moreover, the half-maximal effective concentration (EC50) under setting [2] is 0.5 to 5 µM.

Turning to `Cc1cccc2c1C(C)N(Cc1ccc3[nH]c(=O)oc3c1)C2=O` (stereo not drawn) [Compound 246, 6-((3,4-dimethyl-1-oxoisoindolin-2-yl)methyl)benzo[d]oxazol-2(3H)-one], the “Enzymatic Emax” value is reported as “B (3≥B>2)”. Moreover, the EC50 under setting [2] was at least 5 µM.

For `CC1c2ccccc2C(=O)N1Cc1cc(F)c2[nH]nnc2c1` (stereo not drawn) [Compound 290, 2-((7-fluoro-1H-benzo[d][1,2,3]triazol-5-yl)methyl)-3-methylisoindolin-1-one], the “Enzymatic Emax” value is on record as “C (2≥C)”. Also, the EC50 under setting [2] is at least 5 µM.

Regarding `O=C1c2ccccc2C(Cc2ncccc2Br)N1Cc1ncc(O)cn1` (stereo not drawn) [Compound 505, 3-((3-bromopyridin-2-yl)methyl)-2-((5-hydroxypyrimidin-2-yl)methyl)isoindolin-1-one], the “Enzymatic Emax” value is reported as “C (2≥C)”. Also, the EC50 under setting [1] is at least 5 µM.

Regarding `Cn1nc(Cl)c(Cl)c1CC1c2ccccc2C(=O)N1C[C@H]1C[C@@]2(CNC(=O)O2)C1` (stereo partly drawn) [Compound 499, (2s,4s)-2-((1-((3,4-dichloro-1-methyl-1H-pyrazol-5-yl)methyl)-3-oxoisoindolin-2-yl)methyl)-5-oxa-7-azaspiro[3.4]octan-6-one], the “Enzymatic Emax” value is given as “B (3≥B>2)”. Under setting [1], the concentration giving a half-maximal response (EC50) was under 0.5 µM.

For the compound `Nc1nnc2cc(CN3C(=O)c4ccccc4C3Cc3ncccc3Br)ccn12` (stereo not drawn) [Compound 269, 2-((3-amino-[1,2,4]triazolo[4,3-a]pyridin-7-yl)methyl)-3-((3-bromopyridin-2-yl)methyl) isoindolin-1-one], the “Enzymatic Emax” value was “B (3≥B>2)”. Further, under setting [2], the 50% effective concentration (EC50) is at least 5 µM.

With `Cn1c(CC2c3ccccc3C(=O)N2CC2CC3(CNC(=O)O3)C2)ccc(Cl)c1=O` (stereo not drawn) [Compound 472, 2-((1-((5-chloro-1-methyl-6-oxo-1,6-dihydropyridin-2-yl)methyl)-3-oxoisoindolin-2-yl)methyl)-5-oxa-7-azaspiro[3.4]octan-6-one], the “Enzymatic Emax” value was “C (2≥C)”. Also, the half-maximal effective concentration (EC50) under setting [1] is at least 5 µM.

In the case of `CC(C)c1cccnc1CC1c2ccccc2C(=O)N1Cc1ccc2[nH]c(=O)oc2c1` (stereo not drawn) [Compound 181, 6-((1-((3-isopropylpyridin-2-yl)methyl)-3-oxoisoindolin-2-yl)methyl)benzo[d]oxazol-2(3H)-one], the “Enzymatic Emax” value is on record as “B (3≥B>2)”. In addition, under setting [2], the EC50 was at least 5 µM.

Take `O=C1c2ccccc2C(Cc2ncccc2Br)N1Cc1ccc(O)cn1` (stereo not drawn) [Compound 267, 3-((3-bromopyridin-2-yl)methyl)-2-((5-hydroxypyridin-2-yl)methyl)isoindolin-1-one]: the “Enzymatic Emax” value is “A (A>3)”. Under setting [2], the EC50 was 0.5 to 5 µM.

As for `[2H]C([2H])(C1CC2(CNC(=O)O2)C1)N1C(=O)c2ccccc2C1Cc1c(Cl)cnn1C` (stereo not drawn) [Compound 643, 2-((1-((4-chloro-1-methyl-1H-pyrazol-5-yl)methyl)-3-oxoisoindolin-2-yl)methyl-d)-5-oxa-7-azaspiro[3.4]octan-6-one], the “Enzymatic Emax” value is recorded as “B (3≥B>2)”. The EC50 under setting [1] lay within 0.5 to 5 µM.
